In patent US20240101510A1, “APYRASE INHIBITORS” (Texas Crop Science, priority 2022, published 2024):

Each molecule was assayed on apyrase (assay: In vitro apyrase assay (screen for apyrase inhibitors, phosphate release read at 630 nm)). Conditions: inhibitor conc at 1 mM; 1 hr at room temperature; rounded average of two assay results.
Format: biochemical
Description: Method 1: In Vitro Apyrase Assay: Apyrase inhibitors useful as enhancers of pesticidal activity are assessed using an in vitro assay. The method of Windsor, Bio Techniques 33:1024-1030 (November 2002) was used as follows: Screen for Apyrase Inhibitors - 96 well plates were used for the assay: (Greiner bio-one: REF-655901-96 well, PS, F-bottom, Clear, Non-binding) Buffers: • Reaction Buffer: 60 mM Hepes; 3 mM MgCl2, 3 mM CaCl2 and 3 mM ATP (pH 6.5) • Development Buffer A: 2% aqueous ammonium molybdate • Development Buffer B: 11% ascorbic acid in 37.5% TCA in water • Stop buffer C: 2% trisodium citrate in 2% acetic acid solution in water • Add 100 μl of reaction buffer to each well. • Add […] (control) or inhibitor/compound or compounds such as […] or orthovanadate to each well. […] A blank cell indicates either <10% observed inhibition or a large difference between repetitions. In certain examples, the lack of observed inhibition is due to a lack of solubility of the compound under assay conditions, rather than a lack of apyrase inhibitory activity. Roux compound 15 inhibited apyrase in this assay at about 60%.

Row | Compound | % Inhibition of Apyrase [%]
1 | C/C(=N\NC(=O)c1cccc(S(=O)(=O)Nc2ccccc2Cl)c1)c1ccc2ccccc2c1 [I-1, (E)-N-(2-chlorophenyl)-3-(2-(1-(naphthalen-2-yl)ethylidene)hydrazine-1-carbonyl)benzenesulfonamide] | 74
2 | C/C(=N\NC(=O)c1ccc(NS(=O)(=O)c2cccs2)cc1)c1ccc2ccccc2c1 [I-2, (E)-N-(4-(2-(1-(naphthalen-2-yl)ethylidene)hydrazine-1-carbonyl)phenyl)thiophene-2-sulfonamide] | 60
3 | C/C(=N\NC(=O)c1cccc(S(=O)(=O)N2CCOCC2)c1)c1ccc2ccccc2c1 [I-3, (E)-3-(morpholinosulfonyl)-N′-(1-(naphthalen-2-yl)ethylidene)benzohydrazide] | 46
4 | CCCCCCCCC/C(C)=N\NC(=O)c1ccccc1 [I-5, (Z)-N′-(undecan-2-ylidene)benzohydrazide] | 22
5 | C/C(=N\NC(=O)c1cncc(Br)c1)c1ccc2ccccc2c1 [I-6, (E)-5-bromo-N′-(1-(naphthalen-2-yl)ethylidene)nicotinohydrazide] | 22
6 | C/C(=N/NC(=O)c1cccc(C)c1)c1ccc2ccccc2c1 [I-7, (Z)-3-methyl-N′-(1-(naphthalen-2-yl)ethylidene)benzohydrazide] | 20
7 | C/C(=N\NC(=O)c1ccc(-n2cnnn2)cc1)c1ccc2ccccc2c1 [I-8, (E)-N′-(1-(naphthalen-2-yl)ethylidene)-4-(1H-tetrazol-1-yl)benzohydrazide] | 19
8 | C/C(=N\NC(=O)c1ccc2c(c1)OCO2)c1cccnc1 [I-10, (E)-N′-(1-(pyridin-3-yl)ethylidene)benzo[d][1,3]dioxole-5-carbohydrazide] | 17
9 | C/C(=N\NC(=O)c1cccc2ccccc12)c1ccc(C)c(C)c1 [I-11, (E)-N′-(1-(3,4-dimethylphenyl)ethylidene)-1-naphthohydrazide] | 17
10 | C/C(=N\NC(=O)c1ccccc1F)c1ccncc1 [I-12, (E)-2-fluoro-N′-(1-(pyridin-4-yl)ethylidene)benzohydrazide] | 16
11 | COc1ccc2cc(/C(C)=N/NC(=O)c3ccc4c(c3)OCO4)ccc2c1 [I-13, (E)-N′-(1-(6-methoxynaphthalen-2-yl)ethylidene)benzo[d][1,3]dioxole-5-carbohydrazide] | 16
12 | C/C(=N\NC(=O)c1n[nH]c2c1CCCC2)c1ccc2ccccc2c1 [I-14, (E)-N′-(1-(naphthalen-2-yl)ethylidene)-4,5,6,7-tetrahydro-1H-indazole-3-carbohydrazide] | 16
13 | C/C(=N\NC(=O)c1cc(C)n[nH]1)c1ccc2ccccc2c1 [I-15, (E)-3-methyl-N′-(1-(naphthalen-2-yl)ethylidene)-1H-pyrazole-5-carbohydrazide] | 15
14 | CCCCCC(=O)N/N=C(\C)c1cccc2ccccc12 [I-16, (E)-N′-(1-(naphthalen-1-yl)ethylidene)hexanehydrazide] | 14
15 | C/C(=N/NC(=O)c1ccccc1)C(=O)O [I-17, (Z)-2-(2-benzoylhydrazineylidene)propanoic acid] | 14
16 | C/C(=N\NC(=O)c1ccccc1C)c1ccccn1 [I-18, (E)-2-methyl-N′-(1-(pyridin-2-yl)ethylidene)benzohydrazide] | 13
17 | CCC/C=N/NC(=O)c1ccccc1 [I-19, (E)-N′-butylidenebenzohydrazide] | 13
18 | COc1ccc2cc(/C(C)=N/NC(=O)c3ccc(OC)c(OC)c3)ccc2c1 [I-20, (E)-3,4-dimethoxy-N′-(1-(6-methoxynaphthalen-2-yl)ethylidene)benzohydrazide] | 12
19 | C/C(=N/NC(=O)c1ccc2nc[nH]c2c1)c1ccc2ccccc2c1 [I-21, (Z)-N′-(1-(naphthalen-2-yl)ethylidene)-1H-benzo[d]imidazole-6-carbohydrazide] | 12
20 | C/C(=N\NC(=O)c1ccccc1)c1ccc(-c2ccccc2)cc1 [I-22, (E)-N′-(1-([1,1′-biphenyl]-4-yl)ethylidene)benzohydrazide] | 12
21 | C/C(=N\NC(N)=O)c1cccc2ccccc12 [I-23, (E)-2-(1-(naphthalen-1-yl)ethylidene)hydrazine-1-carboxamide] | 12
22 | CCCCCC(=O)N/N=C(/C)c1ccc2ccccc2c1 [I-24, (Z)-N′-(1-(naphthalen-2-yl)ethylidene)hexanehydrazide] | 11
23 | CCc1ccc(/C=N/NC(=O)c2ccccc2)cc1 [I-25, (E)-N′-(4-ethylbenzylidene)benzohydrazide] | 11

Row | Compound | % Inhibition of Apyrase [%]
24 | CC(C)(C)/C=N/NC(=O)c1ccccc1 [I-26, (E)-N′-(2,2-dimethylpropylidene)benzohydrazide] | 11
25 | C/C(=N\NC(=O)c1ccc(Cl)cc1Cl)c1ccccn1 [I-27, (E)-2,4-dichloro-N′-(1-(pyridin-2-yl)ethylidene)benzohydrazide] | 10
26 | C/C(=N\NC(=O)c1cccc([N+](=O)[O-])c1)c1ccc2ccccc2c1 [I-29, (E)-N′-(1-(naphthalen-2-yl)ethylidene)-3-nitrobenzohydrazide] | 10
27 | CCCC(CCC)=NNC(=O)c1ccccc1F [I-30, 2-fluoro-N′-(heptan-4-ylidene)benzohydrazide] | 10
28 | C/C(=N\NC(=O)c1cccc(Cl)c1)c1ccc2ccccc2c1 [I-31, (E)-3-chloro-N′-(1-(naphthalen-2-yl)ethylidene)benzohydrazide] | 10
29 | C/C(=N/NC(=O)c1cccc(C)c1)C1CC1 [I-32, (Z)-N′-(1-cyclopropylethylidene)-3-methylbenzohydrazide] | 10
30 | Cc1ccc(/C=N/NC(=O)c2ccccc2)cc1 [I-33, (E)-N′-(4-methylbenzylidene)benzohydrazide] | 10
31 | CC(=NNC(=O)c1cccc(C)c1)c1ccc2c(c1)CCCC2 [I-204, (E)-3-methyl-N′-(1-(5,6,7,8-tetrahydronapthalen-2-yl)ethylidene)benzohydrazide] | 74
32 | C/C(=N\NC(=O)c1cnnc(C)c1)c1ccc2ccccc2c1 [I-205, (E)-6-methyl-N′-(1-(naphthalen-2-yl)ethylidene)pyridazine-4-carbohydrazide] | 68
33 | C/C(=N\NC(=O)c1ccc(C)c(C)c1)c1ccc2ccccc2c1 [I-206, (E)-3,4-dimethyl-N′-(1-(naphthalen-2-yl)ethylidene)benzohydrazide] | 68
34 | C/C(=N\NC(=O)c1cc(C)cs1)c1ccc2ccccc2c1 [I-207, (E)-4-methyl-N′-(1-(naphthalen-2-yl)ethylidene)thiophene-2-carbohydrazide] | 68
35 | C/C(=N\NC(=O)c1ccc(NS(C)(=O)=O)cc1)c1ccc2ccccc2c1 [I-208, (E)-N-(4-(2-(1-(naphthalen-2-yl)ethylidene)hydrazine-1-carbonyl)phenyl)methanesulfonamide] | 66
36 | C/C(=N\NC(=O)c1cccc(N(C)C)c1)c1ccc2ccccc2c1 [I-209, (E)-3-(dimethylamino)-N′-(1-(naphthalen-2-yl)ethylidene)benzohydrazide] | 65
37 | C/C(=N\NC(=O)c1cccc(C(F)(F)F)c1)c1ccc2ccccc2c1 [I-210, (E)-N′-(1-(naphthalen-2-yl)ethylidene)-3-(trifluoromethyl)benzohydrazide] | 63
38 | C/C(=N\NC(=O)c1cccc(C)n1)c1ccc2ccccc2c1 [I-211, (E)-6-methyl-N′-(1-(naphthalen-2-yl)ethylidene)picolinohydrazide] | 56
39 | C/C(=N\NC(=O)c1ccc(C)s1)c1ccc2ccccc2c1 [I-212, (E)-5-methyl-N′-(1-(naphthalen-2-yl)ethylidene)thiophene-2-carbohydrazide] | 56
40 | C/C(=N\NC(=O)c1ccccc1)c1ccc2ccccc2c1 [I-213, (E)-N′-(1-(naphthalen-2-yl)ethylidene)benzohydrazide] | 55
41 | C/C(=N\NC(=O)c1csc(C)c1)c1ccc2ccccc2c1 [I-216, (E)-5-methyl-N′-(1-(naphthalen-2-yl)ethylidene)thiophene-3-carbohydrazidee] | 44
42 | C/C(=N\NC(=O)c1cccc(C)c1)c1ccc(C)c(C)c1 [I-217, (E)-N′-(1-(3,4-dimethylphenyl)ethylidene)-3-methylbenzohydrazide] | 44
43 | CCc1cccc(C(=O)N/N=C(\C)c2ccc3ccccc3c2)c1 [I-218, (E)-3-ethyl-N′-(1-(naphthalen-2-yl)ethylidene)benzohydrazide] | 42
44 | C/C(=N\NC(=O)c1ccnc(C)n1)c1ccc2ccccc2c1 [I-219, (E)-2-methyl-N′-(1-(naphthalen-2-yl)ethylidene)pyrimidine-4-carbohydrazide] | 40
45 | C/C(=N\NC(=O)c1cccc(CO)c1)c1ccc2ccccc2c1 [I-220, (E)-3-(hydroxymethyl)-N′-(1-(naphthalen-2-yl)ethylidene)benzohydrazide] | 25
46 | C/C(=N\NC(=O)c1cccc(S(=O)(=O)N(C)C)c1)c1ccc2ccccc2c1 [I-221, (E)-N,N-dimethyl-3-(2-(1-(naphthalen-2-yl)ethylidene)hydrazine-1-carbonyl)benzenesulfonamide] | 23
